Measured values taken from ChEMBL document CHEMBL3853343, “Discovery of novel 2',4'-dimethyl-[4,5'-bithiazol]-2-yl amino derivatives as orally bioavailable TRPV4 antagonists for the treatment of pain: Part 2” (Bioorg Med Chem Lett, 2016).

Legend:
[1] = biological target: Transient receptor potential cation channel subfamily V member 4 (Homo sapiens, UniProt Q9HBA0); assay: Antagonist activity at human TRPV4 assessed as inhibition of 4alpha-PDD-induced activation
[2] = Antagonist activity at guinea pig TRPV4 assessed as inhibition of 4alpha-PDD-induced activation; parameters: species or system Cavia porcellus
[3] = biological target: Transient receptor potential cation channel subfamily V member 4 (Rattus norvegicus, UniProt Q9ERZ8); assay: Antagonist activity at rat TRPV4 assessed as inhibition of 4alpha-PDD-induced activation
Chain of Transient receptor potential cation channel subfamily V member 4 (Rattus norvegicus, UniProt Q9ERZ8) (Q9ERZ8 whole entry): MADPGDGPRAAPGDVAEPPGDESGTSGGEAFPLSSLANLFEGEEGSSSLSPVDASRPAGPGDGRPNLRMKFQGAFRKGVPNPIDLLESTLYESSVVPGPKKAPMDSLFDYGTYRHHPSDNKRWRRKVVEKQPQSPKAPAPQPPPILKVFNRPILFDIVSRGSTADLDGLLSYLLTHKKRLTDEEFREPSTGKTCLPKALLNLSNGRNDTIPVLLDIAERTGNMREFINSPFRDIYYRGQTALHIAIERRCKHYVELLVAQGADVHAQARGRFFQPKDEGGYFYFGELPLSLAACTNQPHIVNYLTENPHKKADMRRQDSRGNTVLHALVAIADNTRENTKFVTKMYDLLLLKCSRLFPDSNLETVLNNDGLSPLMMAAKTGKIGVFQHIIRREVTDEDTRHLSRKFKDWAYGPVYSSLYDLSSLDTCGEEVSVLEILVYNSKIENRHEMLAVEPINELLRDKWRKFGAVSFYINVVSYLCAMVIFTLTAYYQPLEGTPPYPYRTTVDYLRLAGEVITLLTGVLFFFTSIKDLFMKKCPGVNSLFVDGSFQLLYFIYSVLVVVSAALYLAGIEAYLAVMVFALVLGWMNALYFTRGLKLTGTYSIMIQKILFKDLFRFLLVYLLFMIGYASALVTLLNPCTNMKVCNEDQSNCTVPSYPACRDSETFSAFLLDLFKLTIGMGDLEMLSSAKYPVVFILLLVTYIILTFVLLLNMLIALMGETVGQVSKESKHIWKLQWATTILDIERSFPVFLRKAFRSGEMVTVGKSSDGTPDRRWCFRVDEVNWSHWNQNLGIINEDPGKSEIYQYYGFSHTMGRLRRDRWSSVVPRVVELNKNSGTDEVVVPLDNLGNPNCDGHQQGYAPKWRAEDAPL

[4] = Stability in human liver microsomes assessed as parent compound remaining after 30 mins in presence or absence of NADPH; type: ADME, microsome; settings: read-out: Stability
[5] = Stability in rat liver microsomes assessed as parent compound remaining after 30 mins in presence or absence of NADPH; type: ADME, microsome; settings: read-out: Stability
Rattus norvegicus [6] = assay: Analgesic activity in rat assessed as reversal of complete Freund's adjuvant-induced mechanical hyperalgesia at 30 mg/kg, po after 1 hr relative to control; type: functional
Rattus norvegicus [7] = assay: Analgesic activity in rat assessed as reversal of complete Freund's adjuvant-induced mechanical hyperalgesia at 30 mg/kg, po after 5 hrs relative to control; type: functional
[8] = Selectivity ratio of IC50 for rat TRPV4 to IC50 for human TRPV4
[9] = Ratio of free plasma concentration to IC50 for TRPV4 in guinea pig; type: ADME, cell-free, Cavia porcellus
Cavia porcellus = assay: Analgesic activity in po dosed Dunkin-Hartley guinea pig complete Freund's adjuvant-induced mechanical hyperalgesia model assessed as reversal in paw withdrawal threshold measured up to 6 hrs post dose relative to control; type: functional
[10] = Plasma concentration in po dosed Dunkin-Hartley guinea pig complete Freund's adjuvant-induced mechanical hyperalgesia model measured up to 6 hrs post dose; type: ADME, organism-based, Cavia porcellus
[11] = Protein binding in guinea pig; type: ADME, Cavia porcellus; settings: read-out: PB (converted)

Chain of Transient receptor potential cation channel subfamily V member 4 (Homo sapiens, UniProt Q9HBA0) (Q9HBA0 whole entry): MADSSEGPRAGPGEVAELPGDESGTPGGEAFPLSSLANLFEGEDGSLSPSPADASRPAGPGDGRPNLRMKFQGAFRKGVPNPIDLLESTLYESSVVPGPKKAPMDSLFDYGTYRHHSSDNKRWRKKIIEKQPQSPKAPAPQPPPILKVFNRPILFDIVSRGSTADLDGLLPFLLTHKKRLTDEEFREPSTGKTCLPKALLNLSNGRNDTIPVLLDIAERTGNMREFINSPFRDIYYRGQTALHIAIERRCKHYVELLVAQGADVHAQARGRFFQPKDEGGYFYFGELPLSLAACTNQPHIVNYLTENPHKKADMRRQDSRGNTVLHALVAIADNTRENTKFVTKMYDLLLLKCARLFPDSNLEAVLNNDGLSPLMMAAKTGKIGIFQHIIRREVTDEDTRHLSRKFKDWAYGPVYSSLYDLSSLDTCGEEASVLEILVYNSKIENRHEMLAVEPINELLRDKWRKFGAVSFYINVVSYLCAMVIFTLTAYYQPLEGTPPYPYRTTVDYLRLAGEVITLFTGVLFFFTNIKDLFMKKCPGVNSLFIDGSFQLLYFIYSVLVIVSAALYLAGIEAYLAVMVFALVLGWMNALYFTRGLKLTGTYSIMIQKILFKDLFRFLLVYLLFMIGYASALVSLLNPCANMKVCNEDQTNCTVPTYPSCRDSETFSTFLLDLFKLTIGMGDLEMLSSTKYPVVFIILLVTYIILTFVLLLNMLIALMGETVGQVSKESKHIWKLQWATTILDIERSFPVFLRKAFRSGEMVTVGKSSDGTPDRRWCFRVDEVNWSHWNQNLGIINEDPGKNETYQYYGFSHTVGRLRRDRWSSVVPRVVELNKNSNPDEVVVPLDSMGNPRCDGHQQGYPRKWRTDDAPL

Structure (SMILES) | IC50 [1] [nM] | IC50 [2] [nM] | IC50 [3] [nM] | remaining at 0.5 h [4] [%] | remaining at 0.5 h [5] [%] | further results
COC(=O)N1CC2CCC(C1)N2C(=O)c1ccc(Nc2nc(-c3sc(C)nc3C)cs2)nc1 | 1.7 | 2 | 53 | 48.6 | 53 | 
CNC(=O)N1CC2CCC(C1)N2C(=O)c1ccc(Nc2nc(-c3sc(C)nc3C)cs2)nc1 | 770 |  |  | 83.5 | 88.5 | 
Cc1nc(C)c(-c2csc(Nc3ccc(C(=O)N4C5CNCC4COC5)cn3)n2)s1 | 3.2 | 4.3 | 100 | 57.9 | 71.5 | 
Cc1nc(C)c(-c2csc(Nc3ccc(C(=O)N4[C@@H]5CC[C@H]4C[C@H](O)C5)cn3)n2)s1 | 650 |  |  |  |  | 
COC(=O)N1CCN(C(=O)c2ccc(Nc3nc(-c4sc(C)nc4C)cs3)nc2)C(C(F)(F)F)C1 (stereo not given) | 0.57 | 2.7 | 15 | 64.1 | 49.2 | 
Cc1nc(C)c(-c2csc(Nc3ccc(C(=O)N4[C@@H]5CC[C@H]4CC(=NOCC(C)(C)O)C5)cn3)n2)s1 | 4.4 | 8.3 |  | 70 | 75.5 | 
Cc1nc(C)c(-c2csc(Nc3ccc(C(=O)N4C5CCC4CN(CC(F)(F)F)C5)cn3)n2)s1 | 2.1 |  |  | 0 | 8.5 | 
COc1ccc2c(c1)c(CC(=O)O)c(C)n2C(=O)c1ccc(Cl)cc1 [INDOMETHACIN] |  |  |  |  |  | Activity (Rattus norvegicus [6]): 11.4%; Activity (Rattus norvegicus [7]): 6.1%
Cc1nc(C)c(-c2csc(Nc3ccc(C(=O)N4[C@@H]5CC[C@H]4C/C(=N/OC4CCN(C)CC4)C5)cn3)n2)s1 | 4.5 | 6.4 | 57 | 77 | 83.7 | 
Cc1nc(C)c(-c2csc(Nc3ccc(C(=O)N4C5CCC4CC(=O)C5)cn3)n2)s1 | 24 | 45 | 360 |  |  | Ratio IC50 [8]: 15
Cc1nc(C)c(-c2csc(Nc3ccc(C(=O)N4[C@@H]5CC[C@H]4C/C(=N/OC[C@@H](O)C(F)(F)F)C5)cn3)n2)s1 | 1.1 | 2.3 | 29 | 43 | 49.6 | 
Cc1nc(C)c(-c2csc(Nc3ccc(C(=O)N4[C@@H]5CC[C@H]4C[C@@H](OC(=O)NCCF)C5)cn3)n2)s1 | 6.7 | 6.2 | 290 |  |  | 
Cc1nc(C)c(-c2csc(Nc3ccc(C(=O)N4[C@@H]5CC[C@H]4C[C@@H](NC(=O)CC(F)(F)F)C5)cn3)n2)s1 | 19 |  |  |  |  | 
Cc1nc(C)c(-c2csc(Nc3ccc(C(=O)N4[C@@H]5CC[C@H]4C[C@@H](N)C5)cn3)n2)s1 | 530 |  |  |  |  | 
Cc1nc(C)c(-c2csc(Nc3ccc(C(=O)N4[C@@H]5CC[C@H]4C/C(=N/OCC(F)(F)F)C5)cn3)n2)s1 | 0.36 | 2 | 18 | 47.7 | 50.4 | 
Cc1c(C(=O)Nc2cccc(C(F)(F)F)c2)cc(-c2ccccc2)n1CCCN1CCOCC1 | 57 |  |  |  |  | 
Cc1nc(C)c(-c2csc(Nc3ccc(C(=O)N4[C@@H]5CC[C@H]4C[C@@H](CO)C5)cn3)n2)s1 | 41 |  |  |  |  | 
Cc1nc(C)c(-c2csc(Nc3ccc(C(=O)N4C5CCC4CN(C4CCCCC4)C5)cn3)n2)s1 | 2.8 |  |  | 0.58 | 0 | 
Cc1nc(C)c(-c2csc(Nc3ccc(C(=O)N4C5CCC4CNC5)cn3)n2)s1 | 620 |  |  | 64.9 | 63.9 | 

Structure (SMILES) | IC50 [1] [nM] | IC50 [2] [nM] | IC50 [3] [nM] | remaining at 0.5 h [4] [%] | remaining at 0.5 h [5] [%] | further results
Cc1nc(C)c(-c2csc(Nc3ccc(C(=O)N4C5CCC4CN(c4ccc(Cl)cn4)C5)cn3)n2)s1 | 0.9 | 0.7 | 20 | 72.7 | 89 | 
CC(=O)N[C@H]1C[C@H]2CC[C@@H](C1)N2C(=O)c1ccc(Nc2nc(-c3sc(C)nc3C)cs2)nc1 | 80 |  |  |  |  | 
Cc1nc(C)c(-c2csc(Nc3ccc(C(=O)N4[C@@H]5CC[C@H]4C/C(=N/OCC(N)=O)C5)cn3)n2)s1 | 24 |  |  | 89 | 84.8 | 
Cc1nc(C)c(-c2csc(Nc3ccc(C(=O)N4C5COCC4CC(=O)C5)cn3)n2)s1 | 19 | 27 | 800 |  |  | Ratio [9]: 1.9; Ratio IC50 [8]: 42; Activity (Cavia porcellus): 30.8%; concentration at 6 h [10]: 515 ng/mL; fraction unbound [11]: 0.1
Cc1nc(C)c(-c2csc(Nc3ccc(C(=O)N4C5CCC4CN(c4ccc(Cl)cc4)C5)cn3)n2)s1 | 3.2 | 8.8 | 410 | 72.6 | 68.3 | 
Cc1nc(C)c(-c2csc(Nc3ccc(C(=O)N4[C@@H]5CC[C@H]4C[C@@H](O)C5)cn3)n2)s1 | 32 | 33 | 1000 |  |  | 
Cc1nc(C)c(-c2csc(Nc3ccc(C(=O)N4[C@@H]5CC[C@H]4C/C(=N/OCCO)C5)cn3)n2)s1 | 6 |  |  | 84.9 | 74.5 | 
CO/N=C1\C[C@H]2CC[C@@H](C1)N2C(=O)c1ccc(Nc2nc(-c3sc(C)nc3C)cs2)nc1 | 1 |  |  | 79.1 | 12.5 | 
COC(=O)N1CCN(C(=O)c2ccc(Nc3nc(-c4sc(C)nc4C)cs3)nc2)CC1 | 37 | 56 | 1100 | 94.1 | 77.9 | 
COC(=O)N1CC2CCCC(C1)N2C(=O)c1ccc(Nc2nc(-c3sc(C)nc3C)cs2)nc1 | 1.8 |  |  | 33.7 | 43.8 | 
Cc1nc(C)c(-c2csc(Nc3ccc(C(=O)N4[C@@H]5CC[C@H]4C/C(=N/OCCCO)C5)cn3)n2)s1 | 2.9 | 3.3 | 57 | 64.5 | 59.1 | 
Cc1nc(C)c(-c2csc(Nc3ccc(C(=O)N4[C@@H]5CC[C@H]4C[C@@H](Oc4ncc(C(F)(F)F)cn4)C5)cn3)n2)s1 | 4.8 | 2.7 | 120 |  |  | 
Cc1nc(C)c(-c2csc(Nc3ccc(C(=O)N4[C@@H]5CC[C@H]4C/C(=N/O)C5)cn3)n2)s1 | 8.4 |  |  | 80.5 | 38.8 | 
Cc1nc(C)c(-c2csc(Nc3ccc(C(=O)N4C5CCC4CN(c4ncc(Cl)cn4)C5)cn3)n2)s1 | 0.3 | 2 | 16 | 76.4 | 68.4 | 
Cc1nc(C)c(-c2csc(Nc3ccc(C(=O)N4[C@@H]5CC[C@H]4C[C@@H](OCCO)C5)cn3)n2)s1 | 6.2 | 10 | 200 |  |  | 
CCNC(=O)O[C@H]1C[C@H]2CC[C@@H](C1)N2C(=O)c1ccc(Nc2nc(-c3sc(C)nc3C)cs2)nc1 | 1.9 |  |  |  |  | 
CO[C@H]1C[C@H]2CC[C@@H](C1)N2C(=O)c1ccc(Nc2nc(-c3sc(C)nc3C)cs2)nc1 | 2.4 |  |  |  |  | 
CC(=O)N1CC2CCC(C1)N2C(=O)c1ccc(Nc2nc(-c3sc(C)nc3C)cs2)nc1 | 32 | 21 | 600 | 59.4 | 92.1 | 
